Experimental data: patent US6630462B2, “Delta agonist analgesics” (Adolor Corporation, priority 2000, dated 2003)
Like-named read-outs stand apart in the source and are kept apart here.

Experiments:
[1] = molecular target: cloned human μ opioid receptor (Homo sapiens, UniProt P35372); assay: Opioid receptor binding assay, [3H]diprenorphine, CHO cell membranes; conditions: for inhibition at 10 µM: read-out: % Inhibition @ 10 μM, μ
Description: (§1) Chinese hamster ovary (CHO) cells are stably transfected with the cloned human μ, κ, or δ opioid receptors. Cells are harvested by scraping them from the culture flask, centrifuging them at 1000×g for 10 min, resuspending them in buffer A and centrifuging again to remove growth medium. The cells are resuspended again in buffer A and homogenized for 30 seconds using a Polytron homogenizer (Brinkmann) at setting 8. The homogenate is centrifuged at 48,000×g for 10 min at 4° C. The pellets are resuspended at 1 mg of protein per mL of buffer A and aliquots stored at −80° C. until use. Buffer A is 50 mM Tris HCl, pH 7.8, containing 1.0 mM EGTA, 5 mM MgC12, 10 mg/mL leupeptin, 10 mg/mL pepstatin A, 200 mg/mL bacitracin, and 0.5 mg/mL aprotinin.
(§2) Receptor binding assays contain 0.4-1.0 nM [3H]diprenorphine (˜40,000 dpm), test compound as appropriate, and membrane preparation in a total volume of 0.5 mL buffer A. After incubation at room temperature for one hour, the samples are filtered through Whatman GF/B filters that have been presoaked in a solution of 0.5% (w/v) polyethylenimine and 0.1% (w/v) bovine serum albumin in water. The filters are rinsed 4×1 mL with cold 50 mM Tris HCl, pH 7.8 and radioactivity remaining on the filters is determined by scintillation spectroscopy. Ki values are determined by Cheng-Prusoff corrections of IC50 values derived from nonlinear regression fits of 12 point titration curves using the program Prism© (GraphPad Software, San Diego, Calif.).

[2] = molecular target: cloned human κ opioid receptor (Homo sapiens, UniProt P41145); assay: as above; conditions: for inhibition at 10 µM: [3H]diprenorphine binding
Description: as §1, §2

seizures in mice = assay: Drug-induced seizures; format: in vivo; conditions: for induction of seizures: s.c., doses up to 30 mg/kg, observed 30 min
Description: Mice are injected s.c. with either vehicle (1:1:8, DMSO: Cremophor: Saline), clozapine (3-30 mg/kg), or DMCLZ (3-30 mg/kg). Immediately after injection, the mice are placed in individual plastic cages (30×16×12 cm) lined with bedding. The mice are observed for gross behavioral signs for 30 min, and the presence or absence of seizures is noted.
To determine the role of δ opioid receptors in mediating clozapine-induced seizures, mice are pretreated with either saline or the selective δ antagonist naltrindole (NTI) (1 mg/kg, s.c.) 20 min prior to treatment with vehicle or 30 mg/kg of clozapine.

[3] = molecular target: cloned human δ opioid receptor (Homo sapiens, UniProt P41143); assay: Opioid receptor binding assay, [3H]diprenorphine, CHO cell membranes; conditions: for Ki: cloned human δ receptor in CHO membranes, read-out: Ki, inhibition of [3H]diprenorphine binding, δ
Description: as §1
The filters are rinsed 4×1 mL with cold 50 mM Tris HCl, pH 7.8 and radioactivity remaining on the filters is determined by scintillation spectroscopy. Ki values are determined by Cheng-Prusoff corrections of IC50 values derived from nonlinear regression fits of 12 point titration curves using the program Prism© (GraphPad Software, San Diego, Calif.).

human δ opioid receptor = human δ opioid receptor (Homo sapiens, UniProt P41143); assay: Opioid receptor-mediated stimulation of [35S]GTPγS binding; format: biochemical
Description: as §1, with “Buffer A is 50 mM Tris HCl, pH 7.8, containing 1.0 mM EGTA, 5 mM MgC12, 10 mg/mL leupeptin, 10 mg/mL pepstatin A, 200 mg/mL bacitracin, and 0.5 mg/mL aprotinin.” left out
Assays contain 80-100 pM [35S]GTPγS, […], 75 mM NaCl, 15 mM MgCl2, 1.0 mM EGTA, 2.1 mM dithiothreitol, 10 mg/mL leupeptin, 10 mg/mL pepstatin A, 200 mg/mL bacitracin, 0.5 mg/mL aprotinin, […] of membrane protein and agonist as appropriate in a final total volume of […] of 50 mM Tris HCl, pH 7.8 in 96 well Basic Flashplates® (NEN). After incubation for one hour at room temperature, the samples are centrifuged at 800×g at 4° C. for 5 min and the radioactivity (cpm) bound to the membranes is determined by scintillation spectrometry.
To determine the IC50 value, which is the concentration to give half-maximal inhibition of agonist-stimulated [35S]GTPγS binding, the cpm of [35S]GTPγS bound in the presence of a fixed concentration of agonist and various concentrations of antagonist is measured. […]

[4] = human patients; cited from earlier work
[5] = test system: acetic acid-induced writhing; assay: Acetic acid-induced writhing; format: in vivo, ICR mice; conditions: sc; mouse, s.c., 15 min before acetic acid
Description: Male ICR mice weighing 20-25 g are injected s.c. with either vehicle or test compound 15 min before they are injected intraperitoneally with 0.6% acetic acid. At 5 min after treatment with acetic acid, the number of writhes is counted for 10 min. Dose response curves are expressed as the percent inhibition of acetic acid induced writhing, when compared to the mean number of writhes observed in vehicle-treated mice.
The mean percent inhibition (%I) of acetic acid-induced writhing for drug-treated rats is calculated according to the following formula: [formula]
The mean individual response is the mean number of writhes in rats treated with test compound. The mean vehicle response is the mean number of writhes in rats treated with vehicle.

[6] = test system: formalin-induced flinching, late phase; assay: Formalin-induced flinching; format: in vivo, Sprague-Dawley rats; conditions: rat, 300 μg i.paw, late phase 20-35 min after formalin
Description: Male Sprague-Dawley rats weighing 80-120 g are injected s.c. with […] of a 5% formalin solution into the dorsal surface of the right hind paw (i.paw). The flinching behavior is quantified by counting the number of responses that occur during the tonic (late) phase of pain, lasting from 20-35 min after formalin injection. The test compounds are injected i.paw 10 min prior to the formalin injection. The mean percent antagonism (%A) of formalin-induced flinching for drug treated, formalin injected rats is calculated according to the following formula: %A=(Mean formalin response−Mean saline response)−Individual response×100/Mean formalin response−Mean saline response The mean formalin response is the mean number of flinches in rats treated with vehicle prior to the formalin injection. The mean saline response is the mean number of flinches in rats treated with […] saline instead of formalin.

[7] = 10 μM, [3H]diprenorphine binding

cloned human δ opioid receptor, sequence (P41143 whole entry): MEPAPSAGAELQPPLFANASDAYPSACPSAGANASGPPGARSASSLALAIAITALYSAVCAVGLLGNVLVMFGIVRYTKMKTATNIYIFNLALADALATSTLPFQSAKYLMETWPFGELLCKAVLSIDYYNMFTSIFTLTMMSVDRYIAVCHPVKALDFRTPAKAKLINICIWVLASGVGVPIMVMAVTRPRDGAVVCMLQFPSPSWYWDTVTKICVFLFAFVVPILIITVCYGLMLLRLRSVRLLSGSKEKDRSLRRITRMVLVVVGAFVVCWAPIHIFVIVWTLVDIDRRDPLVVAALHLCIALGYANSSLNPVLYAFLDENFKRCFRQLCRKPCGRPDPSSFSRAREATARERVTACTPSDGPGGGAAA
cloned human κ opioid receptor, sequence (P41145 whole entry): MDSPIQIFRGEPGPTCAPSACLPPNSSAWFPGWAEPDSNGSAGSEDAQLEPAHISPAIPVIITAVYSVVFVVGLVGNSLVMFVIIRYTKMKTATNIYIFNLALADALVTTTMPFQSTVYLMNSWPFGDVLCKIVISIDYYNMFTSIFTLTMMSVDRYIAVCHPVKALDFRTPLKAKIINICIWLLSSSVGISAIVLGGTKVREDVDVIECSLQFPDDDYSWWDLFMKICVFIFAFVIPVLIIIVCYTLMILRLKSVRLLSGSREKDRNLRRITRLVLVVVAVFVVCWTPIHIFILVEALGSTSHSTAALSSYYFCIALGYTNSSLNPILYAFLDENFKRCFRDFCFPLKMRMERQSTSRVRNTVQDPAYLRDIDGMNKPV
cloned human μ opioid receptor, sequence (P35372 whole entry): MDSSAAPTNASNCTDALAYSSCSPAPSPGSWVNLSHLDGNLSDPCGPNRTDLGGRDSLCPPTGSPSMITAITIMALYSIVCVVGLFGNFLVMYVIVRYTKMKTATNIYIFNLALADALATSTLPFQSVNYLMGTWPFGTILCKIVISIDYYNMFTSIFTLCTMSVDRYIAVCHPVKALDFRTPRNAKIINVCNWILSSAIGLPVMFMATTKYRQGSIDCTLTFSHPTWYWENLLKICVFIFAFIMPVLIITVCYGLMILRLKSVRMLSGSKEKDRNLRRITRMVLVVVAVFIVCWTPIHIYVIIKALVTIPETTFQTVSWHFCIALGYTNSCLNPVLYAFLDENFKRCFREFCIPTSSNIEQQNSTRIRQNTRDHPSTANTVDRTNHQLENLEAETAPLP
human δ opioid receptor, sequence (P41143 whole entry): as the sequence (P41143 whole entry) above

Compound: Clc1ccc2c(c1)C(N1CCNCC1)=Nc1ccccc1O2 [Amoxapine]
- inhibition at 10 µM [1, 7]: 18%
- inhibition at 10 µM [2]: 25%

Compound: C=CCN1C[C@H](C)N([C@H](c2ccc(C(=O)N(CC)CC)cc2)c2cccc(O)c2)C[C@H]1C [BW373U86]
- Ki ([1]; cloned human μ receptor in CHO membranes, read-out: Ki, inhibition of [3H]diprenorphine binding, μ): 0.096 µM
- Ki ([2]; cloned human κ receptor in CHO membranes, read-out: Ki, inhibition of [3H]diprenorphine binding, κ): 0.149 µM

Compound: CN1CCN(C2=Nc3cc(Cl)ccc3Nc3ccccc32)CC1 [Clozapine, 8-chloro-11-(4-methyl-1-piperazinyl)-5H-dibenzo[b,e][1,4]-diazepine]
- blockade of clozapine-induced seizures by the selective δ antagonist naltrindole (seizures in mice; naltrindole 1 mg/kg s.c. 20 min before 30 mg/kg clozapine): not blocked
- inhibition at 10 µM [1, 7]: 17%
- inhibition at 10 µM [2]: 11%
- Ki [3]: 0.928 µM

Compound: CN1CCN(C2=Nc3ccccc3Oc3ccc(Cl)cc32)CC1 [Loxapine]
- inhibition at 10 µM [1, 7]: 0%
- inhibition at 10 µM [2]: 27%
- inhibition at 10 µM [3, 7]: 26%

Compound: Clc1ccc2c(c1)N=C(N1CCNCC1)c1ccccc1N2 [N-desmethylclozapine]
- induction of seizures (seizures in mice): does not induce seizures
- induction of seizures (seizures in mice; listed as DMCLZ): does not produce seizures
- EC50 (human δ opioid receptor): 0.29 µM
- agonist character at the human δ opioid receptor (human δ opioid receptor; FIG. 3): full agonist
- inhibition at 10 µM [1, 7]: 17%
- inhibition at 10 µM [2]: 64%
- plasma level [4]: ~0.62 µM
- ED50 [5]: 2.2 mg/kg
- Ki [3]: 0.024 µM
- percent antagonism (% A) of formalin-induced flinching [6]: 56 % A

Compound: C=CCN1C[C@H](C)N([C@H](c2ccc(C(=O)N(CC)CC)cc2)c2cccc(OC)c2)C[C@H]1C [SNC-80]
- inhibition at 10 µM [1]: 5.5%
- inhibition at 1 µM ([2]; read-out: % Inhibition @ 1.0 μM, κ): 2%
